Measured values taken from publication PMC3127123, “Effect of 2-Hydroxypropyl-β-cyclodextrin on Solubility of Sparingly Soluble Drug Derivatives of Anthranilic Acid” (International Journal of Molecular Sciences, 2011).
In brackets after ≈: the same amount, converted by molar mass. Like-named read-outs stand apart in the source and are kept apart here.

Key:
[1] = Phase solubility study: drug solubility in buffer solutions by UV-vis spectrophotometry; assay type: physicochemical; conditions: buffer solution without cyclodextrin, thermodynamic from solid, no cyclodextrin, read-out: solubility (C) in water (buffer solution), CD
Protocol: The calibration curves are included in these figures. The absorption spectra were recorded in the range of 190–350 nm and for the calculation of […] the change of absorption was measured at 340 nm (pH 7.0), 195 nm (pH 2.0) for MEF; 245 nm (pH 7.0), and 250 nm (pH 2.0) for NIF and 255 nm (pH 7.0), and 225 nm (pH 2.0) for FLU, respectively.
The UV-Vis spectrophotometer (Perkin–Elmer Life and Analytical Sciences, Shelton, USA) was used to determine the 2HP-β-CD influence on drug solubility. Maximum drug concentration was measured at different cyclodextrins concentrations, temperatures and pHs. Samples contained buffer solution with pH 7 or 2, 2HP-β-CD in different concentrations, i.e., 0, 1, 2, 4, 7 or 10 mmol·dm^−3 and drug in excess. Samples were thermostated and mixed for 20 hours and then left for 4 hours for separation. The uncertainties of the temperature measurements were judged to be 0.1 K. Absorbance of each sample was measured with the UV-vis spectrophotometer.
The stability constants were determined by the measurements of the concentration of the drug in the sample as a function of the cyclodextrin concentration. Such a method is usually called “Phase solubility study” [31]. In this method complex stability constants are calculated from the obtained solubility data using a spectophotometric method. As a reference sample, the buffer + 2HP-β-CD solutions were used. Two buffers were prepared (mol concentration) i.e., potassium dihydrogen phosphate (0.008), disodium hydrogen phosphate (0.008; buffer, pH = 7.0), potassium dihydrogen phosphate (0.05), hydrochloric acid (0.05, buffer, pH = 2.0). Samples were scanned with a scan step of 1 nm from 650 to 190 nm. Measurements at pH = 10 were not performed in all systems, because of the necessity of using too high drug concentrations and because of problems with separation of two phases.

[2] = Phase solubility study: effect of 2HP-β-CD on drug solubility and cyclodextrin-drug complex stability/dissociation constants; assay type: physicochemical; conditions: for cyclodextrin-drug complex stability constant Ks: 1:1 complex, Higuchi-Connors; for Kd: Kd = 1/Ks, value is Kd multiplied by 10^3, read-out: dissociation constant Kd·10^3; for solubility enhance ratio (R): drug concentration at highest 2HP-β-CD concentration relative to no cyclodextrin; for stability constant log Ks: pH = 7, T = 298.15 K, our value, phase solubility
Protocol: Solubility enhance ratio, R, was calculated as a drug concentration at the highest cyclodextrin concentration with relation to drug concentration in the absence of cyclodextrin. […] The opposite effect is observed for NIF. […] In general, when the solubility of the drug is very low, the solubility enhance ratio, R is high. Substitution of hydroxyl groups surrounding the 2HP-β-CD rim by the hydroxypropyl group promotes the complex formation process for drug derivatives of anthranilic acid with polar carboxylic substituent. […] Measurements of cyclodextrin-drug complex stability constants Ks and dissociation constants Kd are very important since these values indicate changes in physicochemical properties of a compound upon inclusion. Linear dependence of drug concentration to cyclodextrin concentration, with slope ratio below one usually assumes 1:1 ratio of complex. The stability constant, Ks, for complexes with 1:1 ratio is represented by: (1) Ks=[CD]/[D]⋅[C] Where: [D] is pure drug concentration, [C] is pure cyclodextrin concentration, and [CD] is concentration of drug-cyclodextrin complexes in solution. Complex dissociation constant, Kd, is represented by: […] For such systems, stability constant can be obtained by the following equation, investigated previously by Higuchi and Connors, 1965 [25]: (3) Ks=K1:1=slope/c0⋅(1−slope) […] Maximum drug concentration was measured at different cyclodextrins concentrations, temperatures and pHs. […] Samples were thermostated and mixed for 20 hours and then left for 4 hours for separation. The uncertainties of the temperature measurements were judged to be 0.1 K. Absorbance of each sample was measured with the UV-vis spectrophotometer. The stability constants were determined by the measurements of the concentration of the drug in the sample as a function of the cyclodextrin concentration. Such a method is usually called “Phase solubility study” [31]. In this method complex stability constants are calculated from the obtained solubility data using a spectophotometric method. As a reference sample, the buffer + 2HP-β-CD solutions were used. Two buffers were prepared (mol concentration) i.e., potassium dihydrogen phosphate (0.008), disodium hydrogen phosphate (0.008; buffer, pH = 7.0), potassium dihydrogen phosphate (0.05), hydrochloric acid (0.05, buffer, pH = 2.0). Samples were scanned with a scan step of 1 nm from 650 to 190 nm. Measurements at pH = 10 were not performed in all systems, because of the necessity of using too high drug concentrations and because of problems with separation of two phases.

[3] = Thermodynamic parameters of complexation from temperature dependence of stability constant (van't Hoff); assay type: physicochemical; conditions: T = 298.15 K, pH = 7 (buffer solution)
Source text: Thermodynamic parameters of reactions i.e. the free energy change (ΔG), the enthalpy change (ΔH) and the entropy change (ΔS), can be obtained from the temperature dependence of stability constant.

[4] = cited from earlier work
[5] = T = 298.15 K, cited from earlier work
[6] = set-up: method as in earlier work; conditions: aqueous ethanol; cited from earlier work
[7] = pH 2, aqueous buffer, pH 2, T = 298.15 K
[8] = pH 2, aqueous buffer, pH 2, T = 310.15 K
[9] = pH 7, aqueous buffer, pH 7, T = 298.15 K
[10] = pH 7, aqueous buffer, pH 7, T = 310.15 K
[11] = previous work, densimetry and 1H NMR measurements

| SMILES | solubility at 20 h [1, 7] [µM] | solubility at 20 h [1, 8] [µM] | solubility at 20 h [1, 9] [µM] | solubility at 20 h [1, 10] [µM] | cyclodextrin-drug complex stability constant Ks ([2]; pH 2, T = 298.15 K) [M⁻¹] | Kd ([2]; pH 2, T = 298.15 K) [mM] | solubility enhance ratio (R) ([2]; pH 2, T = 298.15 K) | cyclodextrin-drug complex stability constant Ks ([2]; pH 2, T = 310.15 K) [M⁻¹] | Kd ([2]; pH 2, T = 310.15 K) [mM] | solubility enhance ratio (R) ([2]; pH 2, T = 310.15 K) | cyclodextrin-drug complex stability constant Ks ([2]; pH 7, T = 298.15 K) [M⁻¹] | Kd ([2]; pH 7, T = 298.15 K) [mM] | solubility enhance ratio (R) ([2]; pH 7, T = 298.15 K) | cyclodextrin-drug complex stability constant Ks ([2]; pH 7, T = 310.15 K) [M⁻¹] | Kd ([2]; pH 7, T = 310.15 K) [mM] | solubility enhance ratio (R) ([2]; pH 7, T = 310.15 K) | stability constant log Ks [2] | entropy change (ΔS) of complexation [3] [J·mol^−1·K^−1] | free energy change (ΔG) of complexation [3] [kJ/mol] | also measured |
| --- | --- | --- | --- | --- | --- | --- | --- | --- | --- | --- | --- | --- | --- | --- | --- | --- | --- | --- | --- | --- |
| O=C(O)c1cccnc1Nc1cccc(C(F)(F)F)c1 [Niflumic acid] | 698 (≈ 197 µg/mL) | 925 (≈ 261 µg/mL) | 5750 (≈ 1620 µg/mL) | 8170 (≈ 2310 µg/mL) | 26 | 38.9 | 1.3 | 33 | 29.2 | 1.3 | 96 | 10.4 | 1.6 | 82 | 12.2 | 1.5 | 1.98 | 4.3 | -11.3 | enthalpy change (ΔH) of complexation [3]: -10.0 kJ/mol; stability constant log Ks ([4]; 1H NMR, pH = 7.4, T = 298.15 K): 2.3; free energy change (ΔG) of complexation ([4]; T = 298.15 K, pH = 7.4): -12.3 kJ/mol; stability constant log Ks ([4]; UV-vis, pH = 7.4, T = 298.15 K): 3.09; stability constant log Ks ([4]; calorimetric measurements, pH = 7.4, T = 298.15 K): 2.2; stability constant log Ks ([4]; densimetry, pH = 7.4, T = 298.15 K): 2.8; stability constant log Ks ([4]; pH = 7, T = 298.15 K, cyclodextrin not named at the place): 2.72; stability constant log Ks ([4]; pH = 12, T = 298.15 K, cyclodextrin not named at the place): 2.53; enthalpy of complexation [4, 11]: -20.1 kJ/mol; entropy of complexation [4, 11]: negative |
| Cc1cccc(Nc2ccccc2C(=O)O)c1C [Mefenamic acid] | 1 (≈ 0.241 µg/mL) | 1 (≈ 0.241 µg/mL) | 155 (≈ 37.4 µg/mL) | 220 (≈ 53.1 µg/mL) | 539 | 1.86 | 6.4 | 1627 | 0.62 | 17.3 | 383 | 2.61 | 4.6 | 562 | 1.78 | 6.0 | – | −33.0 | -14.7 | solubility in water ([5]; pH between 3 and 6): 0.87 × 10^−4 mmol·dm^−3 |
| O=C(O)c1ccccc1Nc1cccc(C(F)(F)F)c1 [Flufenamic acid] | 6 (≈ 1.69 µg/mL) | 15 (≈ 4.22 µg/mL) | 228 (≈ 64.1 µg/mL) | 298 (≈ 83.8 µg/mL) | 3055 | 0.33 | 31.0 | 1850 | 0.54 | 19.0 | 202 | 4.95 | 2.9 | 218 | 4.59 | 3.0 | 2.30 | 50.2 | – | stability constant log Ks ([4]; phase-solubility diagrams, pH = 6.75, T = 298.15 K): 2.36; solubility in water [5]: 2.38 × 10^−2 mmol·dm^−3 |
| Oc1cc(Cl)ccc1Oc1ccc(Cl)cc1Cl [triclosan] | – | – | – | – | – | – | – | – | – | – | – | – | – | – | – | – | – | – | – | solubility increase on complexation with 2HP-β-CD [6]: 70 fold |
